Values of other authors as cited in US7138430B2, “Nitrosated and nitrosylated nebivolol and its metabolites, compositions and methods of use” (NitroMed, Inc., priority 2001, dated 2006).

SMILES: O=[N+]([O-])O[C@H]1CO[C@H]2[C@@H]1OC[C@H]2O[N+](=O)[O-] [isosorbide dinitrate, 1,4,3,6-dianhydro-D-glucitol-2,5-dinitrate]
- solubility in organic solvents (organic solvents such as ethanol, ether and chloroform): freely soluble
- solubility in water (water): sparingly soluble
